In one data set the test system is rgRSV224 virus. Nature of the data set: Antiviral activity: rgRSV224 (GFP) replication in HeLa cells. The data set is classed as cell-based, respiratory syncytial virus (RSV). To be noted: human respiratory syncytial virus, HeLa, 72 h, read-out: RSV HELA EC50 (μM), rgRSV224 virus (MOI=1), HeLa cells, GFP expression three days post-virus exposure.
A further data set in a line: in vitro. To be noted: human, TOX HELA CC50 (μM).

Method for in vitro: Black 384-well clear-bottom microtiter plates (Corning, Amsterdam, The Netherlands) were filled via acoustic drop ejection using the echo liquid handler (Labcyte, Sunnyvale, Calif.). 200 nL of compound stock solutions (100% DMSO) were transferred to the assay plates. 9 serial 4-fold dilutions of compound were made, creating per quadrant the same compound concentration. The assay was initiated by adding 10 μL of culture medium to each well (RPMI medium without phenol red, 10% FBS-heat inactivated, 0.04% gentamycin (50 mg/mL). All addition steps are done by using a multidrop dispenser (Thermo Scientific, Erembodegem, Belgium). Next, rgRSV224 virus (MOI=1) diluted in culture medium was added to the plates. rgRSV224 virus is an engineered virus that includes an additional GFP gene (Hallak L K, Spillmann D, Collins P L, Peeples M E. Glycosaminoglycan sulfation requirements for respiratory syncytial virus infection; Journal of virology (2000), 74(22), 10508-13) and was in-licensed from the NIH (Bethesda, Md., USA). Finally, 20 μL of a HeLa cell suspension (3,000 cells/well) were plated. Medium, virus- and mock-infected controls were included in each test. The wells contain 0.05% DMSO per volume. Cells were incubated at 37° C. in a 5% CO2 atmosphere. Three days post-virus exposure, viral replication was quantified by measuring GFP expression in the cells by an in house developed MSM laser microscope (Tibotec, Beerse, Belgium). The EC50 was defined as the 50% inhibitory concentration for GFP expression. In parallel, compounds were incubated for three days in a set of white 384-well microtiter plates (Corning) and the cytotoxicity of compounds in HeLa cells was determined by measuring the ATP content of the cells using the ATPlite kit (Perkin Elmer, Zaventem, Belgium) according to the manufacturer's instructions. The CC50 was defined as the 50% concentration for cytotoxicity.

Broadly, the EC50 is the concentration that produces a half-maximal response. What is called CC50 is the concentration at which the toxic effect on the cells reaches its halfway point. With `C[C@@H]1c2ccccc2CCN1C(=O)c1cc(C2CC2)n2nc(-c3ccc(N4CCC(C#N)C4)cc3F)cc2n1` (stereo partly drawn) [Compound 1, 1-(4-{7-Cyclopropyl-5-[(1R)-1-methyl-1,2,3,4-tetrahydroisoquinoline-2-carbonyl]-pyrazolo[1,5-a]pyrimidin-2-yl}-3-fluorophenyl)pyrrolidine-3-carbonitrile], the EC50 with rgRSV224 virus was 0.085 µM. The molecule further registered a CC50 at 3 days in “in vitro” greater than 100 µM.

As to `CNC(=O)O[C@@H]1CCN(c2ccc(-c3cc4nc(C(=O)N5CCc6ccccc6[C@H]5C)cc(C5CC5)n4n3)c(F)c2)C1` [Compound 15, (3R)-1-(4-{7-Cyclopropyl-5-[(1R)-1-methyl-1,2,3,4-tetrahydroisoquinoline-2-carbonyl]-pyrazolo[1,5-a]pyrimidin-2-yl}-3-fluorophenyl)pyrrolidin-3-yl N-methylcarbamate], the EC50 with rgRSV224 virus was 0.1 µM. In “in vitro”, the CC50 at 3 days is greater than 100 µM.

With `C[C@@H]1c2ccsc2CCN1C(=O)c1cc(C2CC2)n2nc(-c3ccc(N4CC[C@](C)(C(N)=O)C4)cc3F)cc2n1` (single isomer, unassigned) [Compound 45, (3*S)-1-(4-{7-Cyclopropyl-5-[(4*R)-4-methyl-4,5,6,7-tetrahydro-thieno[3,2-c]pyridine-5-carbonyl]pyrazolo[1,5-a]pyrimidin-2-yl}-3-fluorophenyl)-3-methylpyrrolidine-3-carboxamide], the half-maximal effective concentration (EC50) in the data set with rgRSV224 virus was found to be 0.02 µM. The CC50 at 3 days in “in vitro” is 31.4 µM.

As to `C[C@@H]1c2ccccc2CCN1C(=O)c1cc(C2CC2)n2nc(-c3ccc(N4CC[C@H](C(=O)N(C)C)C4)cc3F)cc2n1` [Compound 38, (3S)-1-(4-{7-Cyclopropyl-5-[(1R)-1-methyl-1,2,3,4-tetrahydroisoquinoline-2-carbonyl]-pyrazolo[1,5-a]pyrimidin-2-yl}-3-fluorophenyl)-N,N-dimethylpyrrolidine-3-carboxamide], the EC50 in the data set on rgRSV224 virus is 0.043 µM. In “in vitro”, this molecule yielded a CC50 at 3 days greater than 100 µM.

Regarding `C[C@@H]1c2ccccc2CCN1C(=O)c1cc(-c2ccncc2)n2nc(-c3ccc(N4CC[C@H](C(N)=O)C4)cc3F)cc2n1` [Compound 63, (3S)-1-(3-Fluoro-4-{5-[(1R)-1-methyl-1,2,3,4-tetrahydroisoquinoline-2-carbonyl]-7-(pyridin-4-yl)pyrazolo[1,5-a]pyrimidin-2-yl}phenyl)pyrrolidine-3-carboxamide], the EC50 in the data set with rgRSV224 virus amounted to 0.011 µM. Besides, the CC50 at 3 days in “in vitro” is 27.2 µM.

On to `CNC(=O)[C@H]1CCN(c2ccc(-c3cc4nc(C(=O)N5CCc6ccccc6[C@H]5C)cc(C5CC5)n4n3)c(F)n2)C1` [Compound 50, (3S)-1-(5-{7-Cyclopropyl-5-[(1R)-1-methyl-1,2,3,4-tetrahydroisoquinoline-2-carbonyl]-pyrazolo[1,5-a]pyrimidin-2-yl}-6-fluoropyridin-2-yl)-N-methylpyrrolidine-3-carboxamide], for which the EC50 with rgRSV224 virus was 0.031 µM. Further, the midpoint of cytotoxicity in the data set “in vitro”, the CC50 at 3 days, lay at 35.1 µM.

Turning to `C[C@@H]1c2ccccc2CCN1C(=O)c1cc(C2CC2)n2nc(-c3ccc(N4CC[C@H](C(N)=S)C4)cc3F)cc2n1` [Compound 101, (S)-1-(4-(7-cyclopropyl-5-((R)-1-methyl-1,2,3,4-tetrahydroisoquinoline-2-carbonyl)pyrazolo[1,5-a]pyrimidin-2-yl)-3-fluorophenyl)pyrrolidine-3-carbothioamide], the EC50 in the data set with rgRSV224 virus stood at 0.058 µM. Besides, the CC50 at 3 days in “in vitro” came to 45.4 µM.

`C[C@@H]1c2ccccc2CCN1C(=O)c1cc(C2CC2)n2nc(-c3ccc(N4C[C@H](C)[C@@H](O)C4)cc3F)cc2n1` (stereo in doubt) [Compound 99, (7-cyclopropyl-2-(2-fluoro-4-((trans)-3-hydroxy-4-methylpyrrolidin-1-yl)phenyl)pyrazolo[1,5-a]pyrimidin-5-yl)((R)-1-methyl-3,4-dihydroisoquinolin-2(1H)-yl)methanone]: the EC50 with rgRSV224 virus turned out to be 0.092 µM. In addition, the CC50 at 3 days in “in vitro” was greater than 100 µM.

For the molecule `C[C@@H]1c2ccccc2CCN1C(=O)c1cc(C2CC2)n2nc(-c3ccc(N4CC[C@@H](OC(N)=O)C4)cc3F)cc2n1` [Compound 77, (3R)-1-(4-{7-Cyclopropyl-5-[(1R)-1-methyl-1,2,3,4-tetrahydroisoquinoline-2-carbonyl]pyrazolo[1,5-a]pyrimidin-2-yl}-3-fluorophenyl)pyrrolidin-3-yl carbamate], in the data set on rgRSV224 virus, the EC50 came to 0.082 µM. Further, the CC50 at 3 days in “in vitro” is greater than 100 µM.

On to `C[C@@H]1c2ccccc2CCN1C(=O)c1cc(C2CC2)n2nc(-c3ccc(N4CC[C@@H](C(C)(C)C(N)=O)C4)cc3F)cc2n1` (single isomer, unassigned) [Compound 28, 2-[(3*S)-1-(4-{7-Cyclopropyl-5-[(1R)-1-methyl-1,2,3,4-tetrahydroisoquinoline-2-carbonyl]pyrazolo[1,5-a]pyrimidin-2-yl}-3-fluorophenyl)pyrrolidin-3-yl]-2-methylpropanamide], for which the EC50 with rgRSV224 virus stood at 0.072 µM. Moreover, the CC50 at 3 days in the data set “in vitro” stood at 32.2 µM.

Take `C[C@@H]1c2ccccc2CCN1C(=O)c1cc(-c2ccccc2)n2nc(-c3ccc(N4CC[C@H](C(N)=O)C4)cc3F)cc2n1` [Compound 56, (3S)-1-(3-Fluoro-4-{5-[(1R)-1-methyl-1,2,3,4-tetrahydroisoquinoline-2-carbonyl]-7-phenylpyrazolo[1,5-a]pyrimidin-2-yl}phenyl)pyrrolidine-3-carboxamide]: the EC50 in the data set with rgRSV224 virus came to 0.032 µM. In the data set “in vitro”, this molecule yielded a CC50 at 3 days of 58.9 µM.

Turning to `C[C@@H]1c2ccccc2CCN1C(=O)c1cc(C2CC2)n2nc(-c3ccc(N4CCC(S(=O)(=O)N(C)C)C4)cc3F)cc2n1` (stereo partly drawn) [Compound 22, 1-(4-{7-Cyclopropyl-5-[(1R)-1-methyl-1,2,3,4-tetrahydroisoquinoline-2-carbonyl]-pyrazolo[1,5-a]pyrimidin-2-yl}-3-fluorophenyl)-N,N-dimethylpyrrolidine-3-sulfonamide], the EC50 with rgRSV224 virus stood at 0.145 µM. This molecule also showed a CC50 at 3 days in “in vitro” greater than 100 µM.

For `C[C@@H]1c2ccccc2CCN1C(=O)c1cc(C2CC2)n2nc(-c3ccc(N4CC[C@H](C(=O)NS(C)(=O)=O)C4)cc3F)cc2n1` [Compound 40, (3S)-1-(4-{7-Cyclopropyl-5-[(1R)-1-methyl-1,2,3,4-tetrahydroisoquinoline-2-carbonyl]-pyrazolo[1,5-a]pyrimidin-2-yl}-3-fluorophenyl)-N-methanesulfonylpyrrolidine-3-carboxamide], the EC50 with rgRSV224 virus came out at 0.061 µM. Half-maximal cytotoxicity in “in vitro” (CC50 at 3 days) was put at 52.3 µM.

In the case of `C[C@@H]1c2ccsc2CCN1C(=O)c1cc(C2CC2)n2nc(-c3ccc(N4CC[C@H](C(=O)NS(C)(=O)=O)C4)cc3F)cc2n1` (single isomer, unassigned) [Compound 41, (3S)-1-(4-{7-Cyclopropyl-5-[(4*R)-4-methyl-4,5,6,7-tetrahydro-thieno[3,2-c]pyridine-5-carbonyl]pyrazolo[1,5-a]pyrimidin-2-yl}-3-fluorophenyl)-N-methanesulfonylpyrrolidine-3-carboxamide], the EC50 with rgRSV224 virus is 0.036 µM. Moreover, the CC50 at 3 days in the data set “in vitro” stood at 51.1 µM.

As for `C[C@@H]1c2ccccc2CCN1C(=O)c1cc(C2CC2)n2nc(-c3c(F)cc(N4CC[C@H](C(N)=O)C4)cc3OCCO)cc2n1` [Compound 106, (S)-1-(4-(7-cyclopropyl-5-((R)-1-methyl-1,2,3,4-tetrahydroisoquinoline-2-carbonyl)pyrazolo[1,5-a]pyrimidin-2-yl)-3-fluoro-5-(2-hydroxyethoxy)phenyl)pyrrolidine-3-carboxamide], the EC50 in the data set with rgRSV224 virus was 0.089 µM. This molecule yielded a 50% cytotoxic concentration (CC50) at 3 days in the data set “in vitro” of 21 µM.

As for `COC(=O)N[C@H]1CCN(c2ccc(-c3cc4nc(C(=O)N5CCc6ccccc6[C@H]5C)cc(C5CC5)n4n3)c(F)c2)C1` [Compound 10, Methyl N-[(3S)-1-[4-{7-cyclopropyl-5-[(1R)-1-methyl-1,2,3,4-tetrahydroisoquinoline-2-carbonyl]pyrazolo[1,5-a]pyrimidin-2-yl}-3-fluorophenyl)pyrrolidin-3-yl]carbamate], the EC50 in the data set on rgRSV224 virus came out at 0.07 µM. Besides, the CC50 at 3 days in the data set “in vitro” is greater than 100 µM.

Consider `CNS(=O)(=O)C1CCN(c2ccc(-c3cc4nc(C(=O)N5CCc6ccccc6[C@H]5C)cc(C5CC5)n4n3)c(F)c2)C1` (stereo partly drawn) [Compound 21, 1-(4-{7-Cyclopropyl-5-[(1R)-1-methyl-1,2,3,4-tetrahydroisoquinoline-2-carbonyl]-pyrazolo[1,5-a]pyrimidin-2-yl}-3-fluorophenyl)-N-methylpyrrolidine-3-sulfonamide], for which the EC50 in the data set with rgRSV224 virus is 0.045 µM. In the data set “in vitro”, this molecule returned a CC50 at 3 days greater than 100 µM.

In the case of `C[C@@H]1c2ccccc2CCN1C(=O)c1cc(C2CC2)n2nc(-c3ccc(N4C[C@H](O)C(F)(F)C4)cc3F)cc2n1` [Compound 97, (7-cyclopropyl-2-(4-((S)-3,3-difluoro-4-hydroxypyrrolidin-1-yl)-2-fluorophenyl)pyrazolo[1,5-a]pyrimidin-5-yl)((R)-1-methyl-3,4-dihydroisoquinolin-2(1H)-yl)methanone], the concentration giving a half-maximal response (EC50) with rgRSV224 virus was 0.053 µM. Besides, the CC50 at 3 days in “in vitro” came to 26.1 µM.

With `C[C@@H]1c2ccccc2CCN1C(=O)c1cc(C2CC2)n2nc(-c3ccc(N4CC[C@H](N)C4)cc3F)cc2n1` [Compound 93, (2-(4-((S)-3-aminopyrrolidin-1-yl)-2-fluorophenyl)-7-cyclopropylpyrazolo[1,5-a]pyrimidin-5-yl)((R)-1-methyl-3,4-dihydroisoquinolin-2(1H)-yl)methanone], the EC50 with rgRSV224 virus amounted to 0.039 µM. The molecule further yielded a CC50 at 3 days in “in vitro” of 13.4 µM.

In the case of `Cc1cc(N2CC[C@H](C(N)=O)C2)cc(F)c1-c1cc2nc(C(=O)N3CCc4ccccc4[C@H]3C)cc(C3CC3)n2n1` [Compound 89, (3S)-1-(4-{7-Cyclopropyl-5-[(1R)-1-methyl-1,2,3,4-tetrahydroisoquinoline-2-carbonyl]pyrazolo[1,5-a]pyrimidin-2-yl}-3-fluoro-5-methylphenyl)pyrrolidine-3-carboxamide], the EC50 with rgRSV224 virus is 0.165 µM. For the same molecule, the midpoint of cytotoxicity in “in vitro”, the CC50 at 3 days, lay at 33.4 µM.

`C[C@@H]1c2ccccc2CCN1C(=O)c1cc(C2CC2)n2nc(-c3ccc(N4C[C@@H](O)[C@@H](O)C4)cc3F)cc2n1` [Compound 95, (7-cyclopropyl-2-(4-((3R,4S)-3,4-dihydroxypyrrolidin-1-yl)-2-fluorophenyl)pyrazolo[1,5-a]pyrimidin-5-yl)((R)-1-methyl-3,4-dihydroisoquinolin-2(1H)-yl)methanone]: the EC50 in the data set with rgRSV224 virus was determined as 0.018 µM. In the data set “in vitro”, this molecule came in with a CC50 at 3 days of 31.1 µM.

Values taken from patent publication US11339165B2, “Pyrazolopyrimidines having activity against the respiratory syncytial virus (RSV)” (priority 2017, dated 2022).
